In patent US8324173B2, “Peptides useful as dual caspase-2/-6 inhibitors and their biological applications” (Chiesi Farmaceutici S.p.A., priority 2004, dated 2012):
Peptide text beside a SMILES is read from it. * marks the point of attachment. code Z = not defined here; CH2F = FC*

Assays:
[1] = target: T1, human recombinant caspase-2 (Homo sapiens, UniProt P42575); assay: In vitro caspase-2 cleavage assay (Ac-VDVAD-AMC substrate); type: biochemical; set-up: key to Group (pattern of caspase-2 inhibition curve): group 1 referred to inhibitors that were relatively more active than VDVAD(SEQ ID NO:9)-based inhibitors against caspase-2 at lower doses, but with similar IC50 values; group 2 referred to VDVAD(SEQ ID NO:9)-based inhibitor with characteristic sigmoid dose-response; group 3 referred to pentapetidic-based inhibitors that were less active than VDVAD(SEQ ID NO:9)-based inhibitors against caspase-2 at lower doses and that exhibited higher IC50; conditions: for VDVAD-AMC cleavage by caspase-2: recombinant caspase-2, FIG. 16; for Group (pattern of caspase-2 inhibition curve) / IC50: Table 4; for IC50: 30 min pre-incubation, 2 h at 37° C.
T1 construct: purchased BIOMOL
T1 sequence (P42575 170-333 limits assumed): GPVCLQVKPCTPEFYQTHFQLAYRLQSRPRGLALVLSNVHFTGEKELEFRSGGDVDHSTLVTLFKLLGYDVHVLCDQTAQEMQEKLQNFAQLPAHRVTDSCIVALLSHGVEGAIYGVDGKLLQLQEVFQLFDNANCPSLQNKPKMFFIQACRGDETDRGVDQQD
T1 sequence (P42575 348-452 limits assumed): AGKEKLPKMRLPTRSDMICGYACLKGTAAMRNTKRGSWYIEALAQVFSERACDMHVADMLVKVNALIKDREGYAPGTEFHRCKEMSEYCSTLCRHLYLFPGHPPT
Experimental: Newly designed inhibitors (Ac-LDEAD(SEQ ID NO:7)-CHO, Ac-VDEAD(SEQ ID NO:1)-CHO . . . ) were compared to Ac-VDVAD(SEQ ID NO:9)-CHO in in vitro caspase-2 cleavage assay according to the following protocol (FIG. 8). Human recombinant caspases (25-50 U; QuantiZyme™ Assay System, BIOMOL, Plymouth, Pa., USA) were pre-incubated 30 min with inhibitors (0.005-2 μM) in final 100 μl final assay buffer (50 mM HEPES, pH 7.4, 100 mM NaCl, 0.1% CHAPS, 10 mM DTT, 1 mM EDTA, 10% glycerol) and then mixed with 200 μM of the fluorogenic caspase substrates (BIOMOL) Ac-VDVAD(SEQ ID NO:9)-AMC. An IC50 value corresponding to the concentration that could inhibit 50% of caspase activity was determined from the dose-response sigmoid curve. The cleavage of AMC-based substrates by human recombinant caspases 1-10 was measured after 2 h at 37° C. on a fluorescence microplate reader by monitoring emission at 510 nm upon excitation at 405 nm.

[2] = tested on: global cerebral ischemia, hippocampus CA1 cell death; assay: Global cerebral ischemia by four-vessel occlusion (4VO) in young-adult rats; type: in vivo, rat; conditions: single i.c.v. 60 ng, 72 h post-ischemia
Experimental: Global cerebral ischemia was induced by four-vessel occlusion (4V0) according a Pulsinelli's derived method (Pulsinelli and Buchman, 1988) in young-adult rats (males Wistar aged of 10-12 weeks, 320 g+/−10 g; Janvier). The first day, head of anesthetised rats was positionned in stereotaxic ear bars and tilted down at approximatively 30° to the horizontal. After a midline incision at the level of cervical spine, both vertebral arteries were exposed under microscope and then coagulated by electocautery needle through the alar foramina at the level of first cervical vertebra. Both common carotides were then exposed 24 h later and clamped for 20-30 min (rats fell in the coma when electrocautherisation of both vertebral arteries have been well performed). Carotid arteries were then declamped to allow blood flow reperfusion. Vehicle and SEQ8 were administrated at the level of the left cerebral ventricule in the first fifth minutes of ischemia (carotides occlusion). Rats were let in their cage with waer et food ad libitum.
The selective loss of vulnerable cells and SEQ8's effects have been evaluated at 72 h. Rats were sacrificed and brain fixed by trans-cardiac perfusion with paraformaldehyde. Frontal brain slices (25 μm) were strained by Cresyl-Violet or co-stained by Hoechst 33342 and Fluorojade B to assess cell death in the hippocampus and in the cortex. […] Fluoro JadeB (green fluorescence) intake is possible only in cells which have permeable plasma membrane, thus more characteristic of dying cells. Hoechst 33342 (blue fluorescence) label nuclei all cells and allows to appreciate nuclear morphology changes during cell death. Cells are counted in three successive slices at such levels in the hippocampus (CA1) in the left brain hemisphere. […] Both Fluoro Jade B and Hoechst stained slices were observed under a Leica DMIRB inverted fluorescence microscope equipped with ×40 objective and LEICA IM1000/Qfluorobase software (BP 340-80 excitation filter combined with LP 425 emission filter for Hoechst; BP 480/40 excitation filter combined with BP 515-560 emission filter for Fluoro Jade B).

[3] = tested on: neonatal ischemic brain injury; assay: Perinatal transient unilateral focal ischemia model in 7 day-old rat pups; type: in vivo; conditions: for reduction of infarct volume: 48 h
Experimental: Newborn Wistar rats (dam plus 9 pups per litter) were obtained from Janvier (Le Genest-St-Isle, France) when the pups were 3-4 days of age. The pups were housed with their dam under a 12:12 h light-dark cycle with food and water freely available. Animal experimentation was conducted according to the French and European Community guidelines for the care and use of experimental animals. Rat pups were anesthetized with an intraperitoneal injection of chloral hydrate (350 mg/kg). Ischemia was performed in 7 day-old rats (17-21 g), as previously described (Renolleau et al., 1998). Anesthetized rats were positioned on their back and a median incision was made in the neck to expose the left common carotid artery. Rats were then placed on the right side and an oblique skin incision was made between the ear and the eye. After excision of the temporal muscle, the cranial bone was removed from the frontal suture to a level below the zygomatic arch. […] After this procedure, a clip was placed to occlude the left common carotid artery. Rats were then placed in an incubator to avoid hypothermia. After 50 min, the clip was removed. Carotid blood flow restoration was verified with the aid of a microscope. Neck and cranial skin incisions were then closed. During the surgical procedure, body temperature was maintained at 37-38° C. Pups were transferred in an incubator (32° C.) until recovery then after to their dams.
Compound was administered intraperitoneally or intraveinously at 1 h after ischemia (corresponding to the reperfusion). Control animals received an equivalent volume of vehicle required to solubilize the pentapeptidic caspase inhibitor. Rats were killed 48 hours after reperfusion and brains were removed. The infarct lesion (pale zone) was visually scored by an observer blinded to the treatment of animals. Brains without a clear ischemic pale zone were observed under a magnifying glass.
Sections from anterior striatum to posterior hippocampus (corresponding to plates 9 to 27 in Paxinos' rat brain atlas) were selected, taken at equally spaced 0.5-mm intervals. The lesion areas were measured on cresyl violet-stained sections using an image analyzer, and the distances between respective coronal sections were used to calculate the infarct volume.

Question: How did the “VDVAD-AMC cleavage by caspase-2” value [1] turn out when “2-Quinolinylcarbonyl-L-Valinyl-L-Aspartyl (methyl ester)-L-Vanilyl-L-Alaninyl-L-Aspartyl (methyl ester) 2,6-difluorophenyl ester [SEQ8]” was run?
Answer: blocked

Question: And the “Cresyl-violet staining intensity” value [2]?
Answer: partially restored

Question: What about the “abnormal nuclei in CA1” value [2] of the same molecule?
Answer: less abnormal nuclei

Question: And the “cells incorporating Fluorojade B in CA1” value [2]?
Answer: 10-20%

Question: What about the “animals with partially or very marked reduced infarct” value ([3]; 1 mg/kg i.v. (FIG. 18) 1 h post-ischemia) of the same molecule?
Answer: ~50%

Question: And the “animals with partially or very marked reduced infarct” value ([3]; 0.1 or 1 mg/kg i.p. 1 h post-ischemia)?
Answer: more than 50%

Question: What about the “reduction of infarct volume” value ([3]; single dose 1 mg/kg i.v. (FIG. 18) 1 h post-ischemia) of the same molecule?
Answer: at least 30%

Question: And the “reduction of infarct volume” value ([3]; single dose 0.1 or 1 mg/kg i.p. 1 h post-ischemia)?
Answer: 44-53%

Question: Which results are given for `CC(=O)N[C@@H](CC(C)C)C(=O)N[C@@H](CC(=O)O)C(=O)N[C@@H](CCC(=O)O)C(=O)N[C@@H](CO)C(=O)N[C@H](C=O)CC(=O)O` [Compound 1, Ac-LDESD-cho, reference compound] (Ac-LDESD-aldehyde)?
Answer: Group (pattern of caspase-2 inhibition curve) [1]: 2/3; IC50 [1]: 300 ± 20 nM

Question: `CC(=O)N[C@@H](Cc1ccccc1)C(=O)N[C@@H](CC(=O)O)C(=O)N[C@@H](CCC(=O)O)C(=O)N[C@@H](CO)C(=O)N[C@H](C=O)CC(=O)O` [Compound 3, Ac-FDESD(SEQ ID NO:6)-cho] (Ac-FDESD-aldehyde) was tested. Which “Group (pattern of caspase-2 inhibition curve)” value [1] did it give?
Answer: 3

Question: How did the “Group (pattern of caspase-2 inhibition curve)” value [1] turn out when `CC(=O)N[C@H](C(=O)N[C@@H](CC(=O)O)C(=O)N[C@@H](CCC(=O)O)C(=O)N[C@@H](CO)C(=O)N[C@H](C=O)CC(=O)O)C(C)C` [Compound 7, Ac-VDESD(SEQ ID NO:4)-cho] (Ac-VDESD-aldehyde) was run?
Answer: 3

Question: Which “Group (pattern of caspase-2 inhibition curve)” value [1] does the source give for `CC(=O)N[C@@H](CC(C)C)C(=O)N[C@@H](CC(=O)O)C(=O)N[C@@H](CCC(=O)O)C(=O)NCC(=O)N[C@H](C=O)CC(=O)O` [Compound 26, Ac-LDEGD(SEQ ID NO:2)-cho] (Ac-LDEGD-aldehyde) here?
Answer: 3

Question: With `CC(=O)N[C@@H](CC(C)C)C(=O)N[C@@H](CC(=O)O)C(=O)N[C@@H](CCC(=O)O)C(=O)N[C@@H](CCCCN)C(=O)N[C@H](C=O)CC(=O)O` [Compound 27, Ac-LDEKD(SEQ ID NO:5)-cho] (Ac-LDEKD-aldehyde) as the molecule, how does the “Group (pattern of caspase-2 inhibition curve)” value [1] read?
Answer: 3

Question: And the IC50 [1]?
Answer: 300 ± 5 nM

Question: With “Z-VDVAD(SEQ ID NO:9)-FMK ({code Z}-VDVAD-CH2F; reading uncertain) [reference compound]” as the molecule, how does the “VDVAD-AMC cleavage by caspase-2” value [1] read?
Answer: blocked

Question: How did the “VDVAD-AMC cleavage by caspase-2” value [1] turn out when “z-LEHD-fmk ({code Z}-LEHD-CH2F; reading uncertain; also: printed as z-LEHD-fmk) [reference compound]” was run?
Answer: not
